# Calls of active or inactive are those of the source.
# Assays:
# [1] = tested on: Streptococcus sp. 'group A'; test: Streptococcus pyogenes SK(-)GAS viability under kanamycin – luminescence, BacTiterGlo, confirmation, counter-screen for streptokinase expression inhibitor project, dose response (AID 1900); format: functional, organism-based
# [2] = tested on: Streptococcus; test: GAS UMAA2166 growth inhibition – luminescence, BacTiterGlo, counter-screen for streptokinase expression inhibitor project, dose response (AID 1915); format: functional, organism-based;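 note: potency for reduction of bacterial viability or growth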
# [3] = viability of uninfected HEp-2 cells – cell-based, HTS, cytotoxicity control for RSV inhibitor project, dose response (AID 2410); format: functional; settings: human respiratory syncytial virus
# [4] = tested on: Vero; test: cells; format: functional; settings: Chlorocebus sabaeus
# [5] = target: T1, Streptokinase A (Streptococcus pyogenes serotype M1, UniProt P10520); test: viability-normalized secreted streptokinase activity reduction – plasminogen activation absorbance, OD405, dose response (AID 1914); format: functional, Streptococcus pyogenes M1 GAS;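 note: secreted streptokinase activity via plasminogen activation per viability signal from cell pellet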
# T1 sequence (P10520 whole entry): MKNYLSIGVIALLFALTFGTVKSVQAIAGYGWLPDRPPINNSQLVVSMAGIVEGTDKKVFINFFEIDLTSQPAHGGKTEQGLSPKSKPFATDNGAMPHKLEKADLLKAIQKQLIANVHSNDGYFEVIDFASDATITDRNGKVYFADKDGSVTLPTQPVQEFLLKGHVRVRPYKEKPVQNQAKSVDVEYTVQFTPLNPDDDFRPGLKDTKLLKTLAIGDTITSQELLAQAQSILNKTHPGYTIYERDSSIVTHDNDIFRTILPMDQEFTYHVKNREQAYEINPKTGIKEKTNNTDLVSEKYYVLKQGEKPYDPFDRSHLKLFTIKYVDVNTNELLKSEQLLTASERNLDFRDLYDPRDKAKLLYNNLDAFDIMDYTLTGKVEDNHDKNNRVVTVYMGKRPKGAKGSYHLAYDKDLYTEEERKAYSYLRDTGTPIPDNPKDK
# [6] = target: T2, Cytochrome P450 1A2 (Homo sapiens, UniProt P05177);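 note: PubChem cytochrome P450 panel assay, CYP1A2 panel member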
# T2 sequence (P05177 whole entry): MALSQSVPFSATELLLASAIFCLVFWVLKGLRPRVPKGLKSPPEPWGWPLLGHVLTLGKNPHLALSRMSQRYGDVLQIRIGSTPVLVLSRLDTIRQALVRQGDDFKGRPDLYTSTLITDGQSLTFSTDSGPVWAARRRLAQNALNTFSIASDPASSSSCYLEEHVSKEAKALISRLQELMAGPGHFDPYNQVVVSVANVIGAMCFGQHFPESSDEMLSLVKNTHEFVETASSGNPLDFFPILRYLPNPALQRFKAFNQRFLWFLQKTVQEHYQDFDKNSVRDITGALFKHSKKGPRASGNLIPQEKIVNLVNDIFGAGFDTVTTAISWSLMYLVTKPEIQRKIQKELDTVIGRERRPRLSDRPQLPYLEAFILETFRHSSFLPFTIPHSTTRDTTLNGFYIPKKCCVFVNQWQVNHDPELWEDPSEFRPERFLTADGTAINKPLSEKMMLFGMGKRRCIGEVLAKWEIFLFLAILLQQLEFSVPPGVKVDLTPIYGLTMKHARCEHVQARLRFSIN
# [7] = target: Cytochrome P450 2C9 (Homo sapiens, UniProt P11712)
# [8] = target: Eukaryotic translation initiation factor 4E (Mus musculus, UniProt P63073); test: blockers of eIF4G binding by eIF4E – biochemical, TR-FRET, dose response (AID 855); format: functional;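 note: potency for disrupting eIF4E binding to eIF4GI seen as loss of FRET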
# [9] = target: T3, Polyadenylate-binding protein 1 (Homo sapiens, UniProt P11940); test: MLLE binding blockers, Cy5 peptide tracer – biochemical, fluorescence polarization, Cy5-PAM2 peptide, secondary, miRNA deadenylation inhibitor project, dose response (AID 602260); format: functional; settings: read-out: IC50_Mean
# [10] = target: T4, Sentrin-specific protease 8 (Homo sapiens, UniProt Q96LD8); format: functional;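 note: luminescence read-out of SENP8 inhibition, dose-response confirmation following an ultra-high-throughput screen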
# T4 sequence (Q96LD8 whole entry): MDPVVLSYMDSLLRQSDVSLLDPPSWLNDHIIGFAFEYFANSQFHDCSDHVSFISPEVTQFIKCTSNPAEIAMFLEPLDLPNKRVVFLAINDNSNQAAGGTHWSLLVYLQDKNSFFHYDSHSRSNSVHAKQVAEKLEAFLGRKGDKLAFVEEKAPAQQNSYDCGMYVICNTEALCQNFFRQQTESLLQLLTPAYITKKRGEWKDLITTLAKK
# [11] = target: T5, Sentrin-specific protease 7 (Homo sapiens, UniProt Q9BQF6); format: functional;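 note: Luminescence-based dose-response confirmation of ultra-high-throughput screening hits, measuring inhibition of SENP7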
# T5 sequence (Q9BQF6 whole entry): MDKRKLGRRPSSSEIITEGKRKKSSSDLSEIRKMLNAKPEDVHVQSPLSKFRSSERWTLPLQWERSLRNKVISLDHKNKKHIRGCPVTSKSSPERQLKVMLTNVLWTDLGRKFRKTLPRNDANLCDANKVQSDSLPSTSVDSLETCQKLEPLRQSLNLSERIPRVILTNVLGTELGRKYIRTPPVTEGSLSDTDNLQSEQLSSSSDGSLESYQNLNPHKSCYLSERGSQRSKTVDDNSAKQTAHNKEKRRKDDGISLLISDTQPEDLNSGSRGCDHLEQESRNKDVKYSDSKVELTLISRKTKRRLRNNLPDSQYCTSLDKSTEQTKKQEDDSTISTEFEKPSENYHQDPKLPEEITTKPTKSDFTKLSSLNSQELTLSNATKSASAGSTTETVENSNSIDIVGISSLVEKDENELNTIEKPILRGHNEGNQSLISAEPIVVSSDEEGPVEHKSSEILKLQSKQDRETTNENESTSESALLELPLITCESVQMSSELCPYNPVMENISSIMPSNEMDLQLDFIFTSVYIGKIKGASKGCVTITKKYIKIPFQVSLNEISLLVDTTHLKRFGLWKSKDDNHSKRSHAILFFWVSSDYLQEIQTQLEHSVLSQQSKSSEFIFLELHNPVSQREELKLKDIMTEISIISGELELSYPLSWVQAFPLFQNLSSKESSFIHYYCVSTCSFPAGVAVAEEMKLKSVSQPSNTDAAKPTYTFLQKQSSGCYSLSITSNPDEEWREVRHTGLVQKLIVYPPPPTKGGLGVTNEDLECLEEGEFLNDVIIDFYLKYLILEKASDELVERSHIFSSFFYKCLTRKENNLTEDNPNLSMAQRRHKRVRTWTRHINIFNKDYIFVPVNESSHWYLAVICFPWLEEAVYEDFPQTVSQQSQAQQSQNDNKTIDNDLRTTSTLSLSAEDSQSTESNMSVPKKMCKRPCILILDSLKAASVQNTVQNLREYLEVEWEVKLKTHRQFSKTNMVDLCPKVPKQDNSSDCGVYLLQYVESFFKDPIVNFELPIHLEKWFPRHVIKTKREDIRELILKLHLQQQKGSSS
# [12] = target: T3, Polyadenylate-binding protein 1; test: MLLE domain peptide-binding blockers, IC50 – biochemical, fluorescence polarization, FITC-PAM2 peptide, dose response (AID 602259); format: functional; settings: read-out: IC50_Mean
# [13] = target: T6, Sentrin-specific protease 6 (Homo sapiens, UniProt Q9GZR1); format: functional;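 note: Luminescence-based dose-response confirmatory assay of SENP6 inhibition, following up an ultra-high-throughput screen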
# T6 sequence (Q9GZR1 whole entry): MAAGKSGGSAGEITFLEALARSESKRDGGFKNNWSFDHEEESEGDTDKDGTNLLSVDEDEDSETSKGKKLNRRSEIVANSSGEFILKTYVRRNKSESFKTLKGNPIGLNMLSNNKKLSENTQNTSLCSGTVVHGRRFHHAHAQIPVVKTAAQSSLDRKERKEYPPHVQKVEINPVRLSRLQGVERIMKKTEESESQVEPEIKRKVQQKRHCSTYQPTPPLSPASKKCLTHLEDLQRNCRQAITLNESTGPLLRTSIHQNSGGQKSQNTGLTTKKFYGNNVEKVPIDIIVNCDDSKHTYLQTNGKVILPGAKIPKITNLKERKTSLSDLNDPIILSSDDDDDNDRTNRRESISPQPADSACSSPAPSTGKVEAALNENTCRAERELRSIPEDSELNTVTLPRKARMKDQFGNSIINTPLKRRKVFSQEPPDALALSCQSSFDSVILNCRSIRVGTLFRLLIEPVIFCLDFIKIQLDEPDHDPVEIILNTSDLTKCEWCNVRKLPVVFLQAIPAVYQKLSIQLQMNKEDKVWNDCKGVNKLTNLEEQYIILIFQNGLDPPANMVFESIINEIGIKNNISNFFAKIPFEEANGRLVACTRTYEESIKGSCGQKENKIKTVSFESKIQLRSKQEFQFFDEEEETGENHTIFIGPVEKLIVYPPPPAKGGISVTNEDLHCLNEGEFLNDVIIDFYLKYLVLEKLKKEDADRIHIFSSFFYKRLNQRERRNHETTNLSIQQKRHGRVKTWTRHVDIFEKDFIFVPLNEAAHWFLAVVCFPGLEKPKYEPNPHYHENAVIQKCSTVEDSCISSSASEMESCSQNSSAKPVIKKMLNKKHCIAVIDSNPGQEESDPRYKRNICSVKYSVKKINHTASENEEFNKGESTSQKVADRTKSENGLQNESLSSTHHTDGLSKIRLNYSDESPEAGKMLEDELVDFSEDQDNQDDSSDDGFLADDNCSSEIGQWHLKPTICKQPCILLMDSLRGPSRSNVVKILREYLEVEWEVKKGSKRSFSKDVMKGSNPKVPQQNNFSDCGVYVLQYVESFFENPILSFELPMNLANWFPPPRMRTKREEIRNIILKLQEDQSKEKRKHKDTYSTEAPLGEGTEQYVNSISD
# [14] = target: T7, Caspase-3 (Homo sapiens, UniProt P42574); format: functional;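 note: Dose-response selectivity test against caspase-3 for candidate inhibitors of sentrin-specific proteases (SENPs)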
# T7 sequence (P42574 whole entry): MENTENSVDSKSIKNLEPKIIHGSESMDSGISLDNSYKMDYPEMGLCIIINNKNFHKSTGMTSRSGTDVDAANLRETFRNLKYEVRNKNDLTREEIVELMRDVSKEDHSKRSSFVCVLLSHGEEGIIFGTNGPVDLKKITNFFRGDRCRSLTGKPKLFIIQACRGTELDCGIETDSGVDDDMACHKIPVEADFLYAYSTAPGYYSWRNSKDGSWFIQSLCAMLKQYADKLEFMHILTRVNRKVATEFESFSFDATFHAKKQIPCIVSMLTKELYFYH
# [15] = target: Cytochrome P450 2D6 (Homo sapiens, UniProt P10635);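 note: CYP2D6 member of a cytochrome P450 panel assay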
# [16] = target: T8, Calpain-2 catalytic subunit (Sus scrofa, UniProt P43367); test: m-calpain protease blockers, concentration series – biochemical, fluorogenic peptide substrate, dose response (AID 1420); format: functional
# T8 sequence (P43367 whole entry): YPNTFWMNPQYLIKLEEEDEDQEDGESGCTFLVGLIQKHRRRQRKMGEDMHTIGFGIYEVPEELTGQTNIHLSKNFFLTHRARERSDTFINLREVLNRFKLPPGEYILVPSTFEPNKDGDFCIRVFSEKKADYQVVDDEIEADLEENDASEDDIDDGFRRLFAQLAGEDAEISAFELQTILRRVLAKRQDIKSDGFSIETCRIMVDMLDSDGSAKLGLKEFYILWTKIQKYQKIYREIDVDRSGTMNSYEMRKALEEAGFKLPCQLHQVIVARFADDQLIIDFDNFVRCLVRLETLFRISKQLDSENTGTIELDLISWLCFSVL
# [17] = target: Genome polyprotein (dengue virus type 2, UniProt P29990); test: flavivirus cap methylation enzyme inhibition – biochemical, confirmation dose response, primary screen (AID 588689); format: functional
# [18] = intracellular Trypanosoma cruzi inhibitors in host cells – cell-based, plate reader, cherry-pick samples, set 3, dose response (AID 651818); format: functional;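 note: compounds incubated with infected cells for about four days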
# Sequence of Genome polyprotein (P29990 2492-3391 limits assumed): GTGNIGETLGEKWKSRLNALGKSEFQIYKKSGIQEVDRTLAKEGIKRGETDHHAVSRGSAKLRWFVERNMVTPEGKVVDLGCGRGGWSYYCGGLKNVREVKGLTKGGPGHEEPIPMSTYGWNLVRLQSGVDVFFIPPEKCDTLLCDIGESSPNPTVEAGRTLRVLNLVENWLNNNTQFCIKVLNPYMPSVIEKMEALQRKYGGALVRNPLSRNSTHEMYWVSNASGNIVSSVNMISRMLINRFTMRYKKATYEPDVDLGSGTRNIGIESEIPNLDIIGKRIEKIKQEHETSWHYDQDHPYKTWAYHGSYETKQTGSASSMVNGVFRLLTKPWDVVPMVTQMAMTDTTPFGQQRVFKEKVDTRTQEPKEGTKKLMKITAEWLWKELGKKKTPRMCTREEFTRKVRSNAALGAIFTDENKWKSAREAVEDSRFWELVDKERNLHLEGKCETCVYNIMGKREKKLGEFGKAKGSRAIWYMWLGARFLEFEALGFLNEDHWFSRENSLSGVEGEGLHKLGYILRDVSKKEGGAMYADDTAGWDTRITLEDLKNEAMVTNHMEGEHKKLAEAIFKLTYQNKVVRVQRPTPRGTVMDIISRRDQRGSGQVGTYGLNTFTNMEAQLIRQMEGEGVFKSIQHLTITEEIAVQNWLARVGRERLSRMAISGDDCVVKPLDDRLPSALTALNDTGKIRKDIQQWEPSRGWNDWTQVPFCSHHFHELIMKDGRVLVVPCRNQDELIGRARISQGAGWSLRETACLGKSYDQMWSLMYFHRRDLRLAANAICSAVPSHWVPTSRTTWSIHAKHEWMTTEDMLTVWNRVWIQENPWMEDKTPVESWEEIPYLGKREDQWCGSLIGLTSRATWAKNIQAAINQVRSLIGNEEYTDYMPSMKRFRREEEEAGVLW
# T3 sequence (P11940 whole entry): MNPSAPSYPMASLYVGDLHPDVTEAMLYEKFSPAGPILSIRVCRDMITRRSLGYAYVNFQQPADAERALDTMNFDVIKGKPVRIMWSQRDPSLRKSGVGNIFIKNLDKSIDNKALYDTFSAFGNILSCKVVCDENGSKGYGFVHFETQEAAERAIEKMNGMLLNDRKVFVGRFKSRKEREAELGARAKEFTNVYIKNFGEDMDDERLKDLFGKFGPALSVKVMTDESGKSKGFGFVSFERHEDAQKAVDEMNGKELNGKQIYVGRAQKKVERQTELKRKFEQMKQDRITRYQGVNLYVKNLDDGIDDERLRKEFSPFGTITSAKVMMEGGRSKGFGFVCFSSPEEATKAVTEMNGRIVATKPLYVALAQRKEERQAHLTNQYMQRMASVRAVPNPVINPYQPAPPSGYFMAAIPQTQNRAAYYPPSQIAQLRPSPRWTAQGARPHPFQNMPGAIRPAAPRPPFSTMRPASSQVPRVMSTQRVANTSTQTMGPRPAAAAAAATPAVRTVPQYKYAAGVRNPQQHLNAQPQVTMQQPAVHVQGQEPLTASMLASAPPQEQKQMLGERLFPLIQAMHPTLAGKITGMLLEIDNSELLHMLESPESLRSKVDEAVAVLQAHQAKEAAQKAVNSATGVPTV
# Sequence of Cytochrome P450 2C9 (P11712 whole entry): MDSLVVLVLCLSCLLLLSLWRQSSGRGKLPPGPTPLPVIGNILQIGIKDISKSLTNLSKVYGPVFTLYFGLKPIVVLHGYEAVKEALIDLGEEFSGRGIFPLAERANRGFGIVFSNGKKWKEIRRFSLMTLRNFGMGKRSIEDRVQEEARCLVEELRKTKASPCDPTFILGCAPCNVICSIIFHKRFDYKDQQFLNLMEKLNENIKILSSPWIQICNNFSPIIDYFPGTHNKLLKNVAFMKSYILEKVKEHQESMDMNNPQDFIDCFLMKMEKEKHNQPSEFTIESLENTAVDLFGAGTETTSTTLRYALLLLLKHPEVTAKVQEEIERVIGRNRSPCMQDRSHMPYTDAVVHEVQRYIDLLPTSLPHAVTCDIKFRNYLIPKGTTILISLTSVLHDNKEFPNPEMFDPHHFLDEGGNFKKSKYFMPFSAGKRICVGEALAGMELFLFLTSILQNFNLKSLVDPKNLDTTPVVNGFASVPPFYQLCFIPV
# Sequence of Cytochrome P450 2D6 (P10635 whole entry): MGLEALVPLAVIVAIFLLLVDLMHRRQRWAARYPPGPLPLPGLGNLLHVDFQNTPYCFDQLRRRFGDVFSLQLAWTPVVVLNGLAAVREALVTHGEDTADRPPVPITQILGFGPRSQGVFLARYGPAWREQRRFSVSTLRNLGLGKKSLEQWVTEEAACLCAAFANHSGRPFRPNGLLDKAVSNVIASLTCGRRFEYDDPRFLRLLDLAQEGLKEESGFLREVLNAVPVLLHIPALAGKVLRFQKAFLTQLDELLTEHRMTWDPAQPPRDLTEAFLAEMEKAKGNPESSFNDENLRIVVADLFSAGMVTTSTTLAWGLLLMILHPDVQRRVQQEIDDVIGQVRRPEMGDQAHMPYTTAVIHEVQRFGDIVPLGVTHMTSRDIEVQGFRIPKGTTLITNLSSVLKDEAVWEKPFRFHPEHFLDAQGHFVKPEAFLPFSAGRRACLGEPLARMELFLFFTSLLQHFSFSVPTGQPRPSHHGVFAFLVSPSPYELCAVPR
# Sequence of Eukaryotic translation initiation factor 4E (P63073 whole entry): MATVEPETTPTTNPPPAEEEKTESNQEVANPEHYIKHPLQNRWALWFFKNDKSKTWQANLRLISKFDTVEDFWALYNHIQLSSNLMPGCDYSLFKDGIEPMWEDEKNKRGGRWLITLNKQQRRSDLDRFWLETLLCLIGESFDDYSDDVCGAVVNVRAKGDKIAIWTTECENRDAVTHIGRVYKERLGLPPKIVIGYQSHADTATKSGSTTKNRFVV
compound,measurement,setting,value
COc1ccc2oc(=O)c(-c3csc(Nc4ccc(O)cc4)n3)cc2c1,EC50,[1],7.11 µM (active)
same,EC50,[2],13.8 µM (active)
same,CC50,[3],38.5 µM (active)
same,CC50,[4],13.3 µM (active)
same,EC50,[5],> 150 µM (not active)
COc1cccc(/C=C2\SC(=S)N(CCC(=O)NC3C=CS(=O)(=O)C3)C2=O)c1 (centres undefined),CC50,[4],23.8 µM (active)
Cc1cccc(-n2cnc(C(=O)NC3CCCCCC3)c2)n1,AC50,[6],11.2 µM (inconclusive)
same,AC50,[7],inconclusive
same,IC50,[8],> 64 µM (inactive)
COc1cccc(-c2nc(=S)c3c(o2)CCCC3)c1,IC50,[9],> 66 µM (inactive)
same,IC50,[10],27.4 µM (active)
same,IC50,[11],8.32 µM (active)
same,IC50,[12],> 66 µM (inactive)
same,IC50,[13],20.5 µM (active)
same,IC50,[14],24.9 µM (active)
C#CCN1C(=O)S/C(=C\c2ccc(-c3ccc(Cl)c(C(=O)O)c3)o2)C1=O,IC50,[10],14.9 µM (active)
same,EC50,[1],2.41 µM (active)
same,EC50,[2],5.9 µM (active)
same,IC50,[11],7.59 µM (active)
same,IC50,[13],11.6 µM (active)
same,IC50,[14],29.6 µM (active)
O=C(CCN1C(=O)C2C3C=CC(C3)C2C1=O)NCCN1CCCc2ccccc21 (centres undefined),AC50,[6],10 µM (inconclusive)
same,AC50,[7],inconclusive
same,AC50,[15],22.4 µM (inconclusive)
COc1ccc(C(=N)NOC(=O)C2CCCCC2)cc1,IC50,[10],44.1 µM (active)
same,IC50,[11],9.16 µM (active)
same,IC50,[13],29.6 µM (active)
same,IC50,[14],28.4 µM (active)
Cc1cc(C(=O)Nc2ccc(N3CCCC3)c(Cl)c2)ccc1[N+](=O)[O-],IC50,[16],2.99 µM (not active)
same,IC50,[10],> 100 µM (inactive)
same,IC50,[11],5.48 µM (active)
same,IC50,[13],> 100 µM (inactive)
same,IC50,[14],28.2 µM (active)
O=C1NC(=O)N(c2ccc(F)cc2)C(=O)/C1=C/c1ccc(N2CCOCC2)cc1,IC50,[17],> 100 µM (active)
CCOC(=O)c1c(C)oc2c1cc(NS(=O)(=O)c1ccc(C(=O)O)cc1)c1ccccc12,IC50,[17],73.8 µM (active)
COc1ccc(NC(=O)Nc2ccc3c(c2)C(=O)N([C@H](C)CO)C[C@H](C)[C@H](CN(C)Cc2ccc(Cl)c(Cl)c2)OCCCC[C@@H](C)O3)cc1,AC50,[18],7.11 µM (active)
C[C@H](CO)N1C[C@H](C)[C@H](CN(C)Cc2ccc(C(=O)Nc3ccccc3N)cc2)Oc2ccc(NC(=O)Nc3ccc4c(c3)OCO4)cc2CC1=O,AC50,[18],2.08 µM (active)
C[C@@H]1CCCCO[C@@H](CN(C)CC2CCCCC2)[C@@H](C)CN([C@H](C)CO)C(=O)c2cc(NC(=O)Nc3ccccc3)ccc2O1,AC50,[18],2.55 µM (active)
O=[N+]([O-])c1ccc(O)c(/C=N/c2ccc3c(c2)OCO3)c1,IC50,[17],41.9 µM (active)

# Source: ChEMBL document CHEMBL1201862, “PubChem BioAssay data set” (2004)
